# Assay results reported in patent US20110009335A1, “Anticancer Treatments” (priority 2008, published 2011).
# Starred links: 1 amine or outer side, 2 acyl side, 3 side chain; linkers in the order of their positions; H or OH if unused. Positions of bridges follow the written chain, without caps; N, C: chain ends. Non-standard residues stand in square brackets, D forms with d. Residues, ends and D or L forms follow the SMILES beside them. *: point of attachment. X1 = CC[C@H](C)[C@@H](N[*:1])[C@@H](O)CC(=O)O[C@H](C(=O)[C@H](C)C(=O)[*:2])C(C)C; NMeY = CN[C@@H](Cc1ccc(O)cc1)C(=O)O; dNMeL = CN[C@H](CC(C)C)C(=O)O; Pyruvoyl = CC(=O)C(=O)*
# Assays:
# [1] = test system: CAKI-1 human renal tumor xenograft; assay: Aplidine with sunitinib, CAKI-1 xenograft in athymic nude mice (Example 2); type: in vivo; settings: doses and schedules tested
# Experimental: (§1) Female athymic nude mice (Harlan Sprague Dawley, Madison, Wis.) were utilized for all experiments. Mice were implanted with tumor fragments or a cell suspension when mice were 5 weeks of age. Animals were housed in ventilated rack caging, 5 mice per cage, with food and water ad libitum. The mice were acclimated for 1 week prior to being implanted with tumor fragments or cell suspensions.
# Cells from in vitro passage 4-20 were implanted SC into study mice: 5×10^6 cells/mouse in 0.2 ml 50% Matrigel/50% medium without antibiotics or serum, using a 23 G needle and 1 cc syringe. Bacterial cultures were performed on aliquots of the cells prepared for implantation.
# (§2) Tumor measurements were determined as disclosed in Example 1.
# Body weights were recorded on treatment days and when tumor sizes were measured. In those days wherein the two drugs were administered the same day, the combination therapy groups were treated by co-administering the two drugs at the same time, with no attempt to sequence the treatments. […]
# (§3) Tumor size measurements were recorded twice weekly from the treatment initiation until the termination of the study.
# (§4) Mean, standard deviation and standard error of the mean were determined for tumor volume for all animal groups at all assessments. […]
# [2] = test system: A498 human renal tumor xenograft; assay: Aplidine with sunitinib, A498 xenograft in athymic nude mice (Example 2); type: in vivo; settings: doses tested; sunitinib 40 mg/kg
# Experimental: as §1, §2
# (§5) Body weights were recorded on treatment days and when tumor sizes were measured. In those days wherein the two drugs were administered the same day, the combination therapy groups were treated by co-administering the two drugs at the same time, with no attempt to sequence the treatments.
# (§6) Aplidine was provided in the form of vials of lyophilized aplidine powder which was reconstituted in Cremophor EL/ethanol/water (CEW) 15/15/70 to a concentration of 0.5 mg/ml. The aplidine solution in CEW was diluted in 0.9% Saline to the dosing formulation concentrations, being the final proportion of CEW of 0.18/0.18/0.84. […]
# as §3, §4
# [3] = test system: A498 human renal tumor xenograft; assay: Aplidine with sorafenib, A498 xenograft in athymic nude mice (Example 1); type: in vivo
# Experimental: as §1
# A498 cells were grown in MEM, 2 mM L-glutamine and 10% FBS. Cells from in vitro passage 4-20 were implanted SC into study mice: 5×10^6 cells/mouse in 0.2 ml 50% Matrigel/50% medium without antibiotics or serum, using a 23 G needle and 1 cc syringe. Matrigel is a biological extracellular matrix that is liquid at 4° C. and solid at 37° C., and it promotes tumor growth by maintaining the cells in close association in a localized area. Bacterial cultures were performed on aliquots of the cells prepared for implantation.
# (§7) Tumor measurements were determined by using Vernier calipers. The formula to calculate volume for a prolate ellipsoid was used to estimate tumor volume (mm^3) from 2-dimensional tumor measurements: Tumor volume (mm^3)=[L×W^2]÷2, where L is the length and it is the longest diameter in mm, and W is the width and it is the shortest diameter in mm of a tumor. Assuming unit density, volume was converted to weight (i.e., 1 mm^3=1 mg).
# as §5
# (§8) Aplidine was provided in the form of vials of lyophilized aplidine powder which was reconstituted in Cremophor EL/ethanol/water (CEW) 15/15/70 to a concentration of 0.5 mg/ml. Then the aplidine solution in CEW was diluted in 0.9% Saline to the dosing formulation concentrations, being the final proportion of CEW of 0.18/0.18/0.84.
# as §3
# (§9) Mean, standard deviation and standard error of the mean were determined for tumor volume for all animal groups at all assessments. Student's t test was performed on tumor volumes at each measurement day, including at the end of the study, to determine whether there were any statistically significant differences between combination treatment groups and single monotherapy treatment groups.
# (§10) Determine the % of tumor growth inhibition, as 100−% T/C, for each of the drugs administered as monotherapy at the doses used in the combinations. % T/C was obtained by comparing the mean tumor weight in the treatment groups (T) to the mean tumor weight in the control group (C) (T/C×100%). • 2. The two scores were added together to determine the “expected response” if each agent produced the same response as it did when administered as monotherapy. • 3. This “expected response” was subtracted from the % of tumor growth inhibition determined for the combination therapy group: • a. A negative number meant that the effect of combining the two drugs was less than additive. • b. If the resulting number was close to zero, the effect of combining the two drugs was determined as additive. • c.
# [4] = test system: AML and ALL samples from pediatric patients; settings: de novo or relapsed ALL and AML; cited from earlier work
# [5] = test system: MRI-H-121 human renal tumor xenograft; assay: Aplidine with sorafenib, MRI-H-121 xenograft in athymic nude mice (Example 1); type: in vivo; settings: for antitumor activity as single agent (monotherapy): doses and schedules tested, sorafenib 60 or 30 mg/kg/day
# Experimental: as §1, §7, §5, §8, §3, §9, §10
# [6] = test system: MRI-H-121 human renal tumor xenograft; assay: Aplidine with sunitinib, MRI-H-121 xenograft in athymic nude mice (Example 2); type: in vivo; settings: doses and schedules tested
# Experimental: as §1, §2, §5, §6, §3, §4
# ALL-MOLT4 cells = settings: mechanistic studies; cited from earlier work
# [7] = aplidine 0.040 and/or sorafenib 30 mg/kg/day
# [8] = aplidine 0.060 and/or sorafenib 60 mg/kg/day
compound,measurement,setting,value
"CC[C@H](C)[C@H]1NC(=O)[C@@H](NC(=O)[C@@H](CC(C)C)N(C)C(=O)[C@@H]2CCCN2C(=O)C(C)=O)[C@@H](C)OC(=O)[C@H](Cc2ccc(OC)cc2)N(C)C(=O)[C@@H]2CCCN2C(=O)[C@H](CC(C)C)NC(=O)[C@@H](C)C(=O)[C@H](C(C)C)OC(=O)C[C@@H]1O [aplidine, dehydrodidemnin B] (Pyruvoyl-P[dNMeL]T[X1]LP[NMeY](Me); ester 3-C)",antitumor activity as single agent (monotherapy),[1],inactive
same,antitumor activity as single agent (monotherapy),[2],no effect
same,% T/C on day 26,[3]; [7],100.8%
same,% T/C on day 29,[3]; [7],84.6%
same,% T/C on day 33,[3]; [7],78.7%
same,% T/C on day 36,[3]; [7],74.8%
same,% T/C on day 40,[3]; [7],90.2%
same,% T/C on day 43,[3]; [7],65.1%
same,% T/C on day 47,[3]; [7],89.8%
same,% T/C on day 50,[3]; [7],71.5%
same,% T/C on day 54,[3]; [7],86.7%
same,% T/C on day 61,[3]; [7],89.5%
same,% T/C on day 26,[3]; [8],96.8%
same,% T/C on day 29,[3]; [8],72.3%
same,% T/C on day 33,[3]; [8],71.0%
same,% T/C on day 36,[3]; [8],77.0%
same,% T/C on day 40,[3]; [8],85.3%
same,% T/C on day 43,[3]; [8],78.6%
same,% T/C on day 47,[3]; [8],86.5%
same,% T/C on day 50,[3]; [8],82.6%
same,% T/C on day 54,[3]; [8],90.9%
same,% T/C on day 61,[3]; [8],87.8%
same,antitumor activity as single agent (monotherapy),[3]; doses and schedules tested,did not reach the NCI criteria for activity
same,concentration with in vitro cytotoxic activity,[4],5 nM
same,% T/C on day 14,[5]; [7],103.5%
same,% T/C on day 16,[5]; [7],104.0%
same,% T/C on day 20,[5]; [7],85.1%
same,% T/C on day 23,[5]; [7],85.9%
same,% T/C on day 27,[5]; [7],94.1%
same,% T/C on day 30,[5]; [7],86.4%
same,% T/C on day 34,[5]; [7],91.0%
same,% T/C on day 37,[5]; [7],85.6%
same,% T/C on day 41,[5]; [7],92.5%
same,% T/C on day 44,[5]; [7],93.9%
same,% T/C on day 48,[5]; [7],94.9%
same,% T/C on day 14,[5]; [8],102.0%
same,% T/C on day 16,[5]; [8],97.5%
same,% T/C on day 20,[5]; [8],81.5%
same,% T/C on day 23,[5]; [8],73.9%
same,% T/C on day 27,[5]; [8],98.4%
same,% T/C on day 30,[5]; [8],88.5%
same,% T/C on day 34,[5]; [8],75.8%
same,% T/C on day 37,[5]; [8],75.0%
same,% T/C on day 41,[5]; [8],88.3%
same,% T/C on day 44,[5]; [8],90.2%
same,% T/C on day 48,[5]; [8],95.5%
same,antitumor activity as single agent (monotherapy),[5],refractory
same,antitumor activity as single agent (monotherapy),[6],refractory
same,VEGF secretion,ALL-MOLT4 cells,block VEGF secretion
CNC(=O)c1cc(Oc2ccc(NC(=O)Nc3ccc(Cl)c(C(F)(F)F)c3)cc2)ccn1 [sorafenib],% T/C on day 26,[3]; [7],97.0%
same,% T/C on day 29,[3]; [7],97.4%
same,% T/C on day 33,[3]; [7],76.6%
same,% T/C on day 36,[3]; [7],84.2%
same,% T/C on day 40,[3]; [7],98.7%
same,% T/C on day 43,[3]; [7],70.1%
same,% T/C on day 47,[3]; [7],91.2%
same,% T/C on day 50,[3]; [7],85.9%
same,% T/C on day 54,[3]; [7],105.9%
same,% T/C on day 61,[3]; [7],89.6%
same,% T/C on day 26,[3]; [8],97.4%
same,% T/C on day 29,[3]; [8],87.8%
same,% T/C on day 33,[3]; [8],80.2%
same,% T/C on day 36,[3]; [8],68.6%
same,% T/C on day 40,[3]; [8],82.9%
same,% T/C on day 43,[3]; [8],51.4%
same,% T/C on day 47,[3]; [8],74.9%
same,% T/C on day 50,[3]; [8],71.1%
same,% T/C on day 54,[3]; [8],78.7%
same,% T/C on day 61,[3]; [8],81.3%
same,% T/C on day 14,[5]; [7],99.7%
same,% T/C on day 16,[5]; [7],85.6%
same,% T/C on day 20,[5]; [7],62.1%
same,% T/C on day 27,[5]; [7],78.7%
same,% T/C on day 30,[5]; [7],72.0%
same,% T/C on day 34,[5]; [7],66.1%
same,% T/C on day 37,[5]; [7],72.5%
same,% T/C on day 41,[5]; [7],79.5%
same,% T/C on day 44,[5]; [7],77.6%
same,% T/C on day 48,[5]; [7],76.1%
same,% T/C on day 14,[5]; [8],103.8%
same,% T/C on day 16,[5]; [8],85.0%
same,% T/C on day 20,[5]; [8],66.5%
same,% T/C on day 23,[5]; [8],71.7%
same,% T/C on day 27,[5]; [8],70.4%
same,% T/C on day 30,[5]; [8],75.6%
same,% T/C on day 34,[5]; [8],69.6%
same,% T/C on day 37,[5]; [8],71.1%
same,% T/C on day 41,[5]; [8],74.7%
same,% T/C on day 44,[5]; [8],71.0%
same,% T/C on day 48,[5]; [8],71.8%
same,antitumor activity as single agent (monotherapy),[5],did not reach the NCI criteria for activity
